In patent publication US20230406843A1, “Progranulin Modulators and Methods of Using the Same” (ARKUDA THERAPEUTICS, priority 2020, published 2023):

Test system: progranulin
Assay: Progranulin induction cellular assay (ELISA of secreted mouse PGRN)
Assay type: cell-based
Conditions: Mus musculus, BV-2, read-out: EC50 μM
Summary of the method: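 Mouse primary microglia, primary cortical neurons and BV-2 cells are used. BV-2 cells are plated in 96-well format the day before, with a 1 h attachment and 16 h incubation. Progranulin secreted into the medium is quantified by ELISA.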

Row | Compound | EC50 [µM]
1 | COC[C@@]1(N)CC[C@@H](C(=O)N2CCc3ccccc3[C@@H]2c2ccc(F)cc2)OC1 [Compound 5217, ((2S,5S)-5-amino-5-(methoxymethyl)tetrahydro-2H-pyran-2-yl)((S)-1-(4-fluorophenyl)-3,4-dihydroisoquinolin-2(1H)-yl)methanone] | 0.226
2 | COC[C@]1(N)CC[C@@H](C(=O)N2CCc3ccccc3[C@@H]2c2ccc(F)cc2)OC1 [Compound 5218, ((2S,5R)-5-amino-5-(methoxymethyl)tetrahydro-2H-pyran-2-yl)((S)-1-(4-fluorophenyl)-3,4-dihydroisoquinolin-2(1H)-yl)methanone] | 0.12
3 | COC[C@]1(N)CC[C@H](C(=O)N2CCc3ccccc3[C@@H]2c2ccc(F)cc2)OC1 [Compound 5219, ((2R,5R)-5-amino-5-(methoxymethyl)tetrahydro-2H-pyran-2-yl)((S)-1-(4-fluorophenyl)-3,4-dihydroisoquinolin-2(1H)-yl)methanone] | 0.006
4 | COC[C@@]1(N)CC[C@H](C(=O)N2CCc3ccccc3[C@@H]2c2ccc(F)cc2)OC1 [Compound 5220, ((2R,5S)-5-amino-5-(methoxymethyl)tetrahydro-2H-pyran-2-yl)((S)-1-(4-fluorophenyl)-3,4-dihydroisoquinolin-2(1H)-yl)methanone] | 0.081

Same assay, conditions: progranulin induction assay; mouse pMG, primary cortical neurons and BV-2 cell lines named, cell type not given; ELISA-based readout; read-out: EC50

Row | EC50 [µM] | Compound
5 | 0.001 | CCO[C@H]1CO[C@@H](C(=O)N2CCc3ccccc3[C@@H]2c2ccc(F)cc2)C[C@@H]1N [Compound 5078, ((2R,4S,5R)-4-amino-5-ethoxytetrahydro-2H-pyran-2-yl)((S)-1-(4-fluorophenyl)-3,4-dihydroisoquinolin-2(1H)-yl)methanone]
6 | > 10 | O=C1N[C@H]2C[C@H](C(=O)N3CCc4ccccc4[C@@H]3c3ccc(F)cc3)OC[C@H]2O1 [Compound 5079, (3aS,6R,7aS)-6-((S)-1-(4-fluorophenyl)-1,2,3,4-tetrahydroisoquinoline-2-carbonyl)hexahydro-2H-pyrano[4,3-d]oxazol-2-one]
7 | 0.084 | N[C@H]1C[C@@H](C(=O)N2CCc3ccccc3[C@@H]2c2ccc(F)cc2)OC[C@@H]1O [Compound 5083, ((2S,4S,5R)-4-amino-5-hydroxytetrahydro-2H-pyran-2-yl)((S)-1-(4-fluorophenyl)-3,4-dihydroisoquinolin-2(1H)-yl)methanone]
8 | 0.18 | C[C@@H]1C[C@@H](C(=O)N2CCc3ccccc3[C@@H]2c2ccc(F)cc2)OC[C@@H]1N [Compound 5084, ((2S,4R,5R)-5-amino-4-methyltetrahydro-2H-pyran-2-yl)((S)-1-(4-fluorophenyl)-3,4-dihydroisoquinolin-2(1H)-yl)methanone]
9 | 0.316 | CN(C)[C@@H]1CO[C@@H](C(=O)N2CCc3ccccc3[C@@H]2c2ccc(F)cc2)C[C@@H]1O [Compound 5085, ((2R,4S,5R)-5-(dimethylamino)-4-hydroxytetrahydro-2H-pyran-2-yl)((S)-1-(4-fluorophenyl)-3,4-dihydroisoquinolin-2(1H)-yl)methanone]
10 | 0.194 | N[C@H]1CO[C@H](C(=O)N2CCc3ccccc3[C@@H]2c2ccc(F)cc2)C[C@H]1F [Compound 5086, ((2S,4R,5S)-5-amino-4-fluorotetrahydro-2H-pyran-2-yl)((S)-1-(4-fluorophenyl)-3,4-dihydroisoquinolin-2(1H)-yl)methanone]
11 | 0.0421 | N[C@H]1C[C@H](C(=O)N2CCc3ccccc3[C@@H]2c2ccc(F)cc2)OC[C@H]1F [Compound 5087, ((2R,4S,5S)-4-amino-5-fluorotetrahydro-2H-pyran-2-yl)((S)-1-(4-fluorophenyl)-3,4-dihydroisoquinolin-2(1H)-yl)methanone]
12 | 0.074 | CCO[C@H]1C[C@H](C(=O)N2CCc3ccccc3[C@@H]2c2ccc(F)cc2)OC[C@H]1N [Compound 5088, ((2R,4S,5R)-5-amino-4-ethoxytetrahydro-2H-pyran-2-yl)((S)-1-(4-fluorophenyl)-3,4-dihydroisoquinolin-2(1H)-yl)methanone]
13 | 0.062 | N[C@@H]1CO[C@@H](C(=O)N2CCc3ccccc3[C@@H]2c2ccc(F)cc2)C[C@@H]1OC(F)F [Compound 5089, ((2R,4S,5R)-5-amino-4-(difluoromethoxy)tetrahydro-2H-pyran-2-yl)((S)-1-(4-fluorophenyl)-3,4-dihydroisoquinolin-2(1H)-yl)methanone]
14 | 0.184 | N[C@@H]1C[C@H](C(=O)N2CCc3ccccc3[C@@H]2c2ccc(F)cc2)OC[C@H]1O [Compound 5092, ((2R,4R,5S)-4-amino-5-hydroxytetrahydro-2H-pyran-2-yl)((S)-1-(4-fluorophenyl)-3,4-dihydroisoquinolin-2(1H)-yl)methanone]
15 | 0.182 | N[C@@H]1CC[C@H](C(=O)N2CCc3ccccc3[C@@H]2c2ccc(F)cc2F)OC1 [Compound 5207]
16 | 0.596 | N[C@H]1CO[C@@H](C(=O)N2CCc3ccccc3[C@@H]2c2ccc(F)cc2)C[C@@H]1F [Compound 5210, ((2R,4S,5S)-5-amino-4-fluorotetrahydro-2H-pyran-2-yl)((S)-1-(4-fluorophenyl)-3,4-dihydroisoquinolin-2(1H)-yl)methanone]
17 | 0.209 | O=C([C@H]1CC[C@@H](NCCO)CO1)N1CCc2ccccc2[C@@H]1c1ccc(F)cc1 [Compound 5211, ((S)-1-(4-fluorophenyl)-3,4-dihydroisoquinolin-2(1H)-yl)((2R,5R)-5-((2-hydroxyethyl)amino)tetrahydro-2H-pyran-2-yl)methanone]
18 | 0.314 | COCCN[C@@H]1CC[C@H](C(=O)N2CCc3ccccc3[C@@H]2c2ccc(F)cc2)OC1 [Compound 5212, ((S)-1-(4-fluorophenyl)-3,4-dihydroisoquinolin-2(1H)-yl)((2R,5R)-5-((2-methoxyethyl)amino)tetrahydro-2H-pyran-2-yl)methanone]
19 | 0.401 | N[C@]1(CO)CC[C@@H](C(=O)N2CCc3ccccc3[C@@H]2c2ccc(F)cc2)OC1 [Compound 5213, ((2S,5S)-5-amino-5-(hydroxymethyl)tetrahydro-2H-pyran-2-yl)((S)-1-(4-fluorophenyl)-3,4-dihydroisoquinolin-2(1H)-yl)methanone]
20 | 0.08 | N[C@@]1(CO)CC[C@@H](C(=O)N2CCc3ccccc3[C@@H]2c2ccc(F)cc2)OC1 [Compound 5214, ((2S,5R)-5-amino-5-(hydroxymethyl)tetrahydro-2H-pyran-2-yl)((S)-1-(4-fluorophenyl)-3,4-dihydroisoquinolin-2(1H)-yl)methanone]
21 | 0.14 | N[C@@]1(CO)CC[C@H](C(=O)N2CCc3ccccc3[C@@H]2c2ccc(F)cc2)OC1 [Compound 5215, ((2R,5R)-5-amino-5-(hydroxymethyl)tetrahydro-2H-pyran-2-yl)((S)-1-(4-fluorophenyl)-3,4-dihydroisoquinolin-2(1H)-yl)methanone]

Row | EC50 [µM] | Compound
22 | 0.295 | N[C@]1(CO)CC[C@H](C(=O)N2CCc3ccccc3[C@@H]2c2ccc(F)cc2)OC1 [Compound 5216, ((2R,5S)-5-amino-5-(hydroxymethyl)tetrahydro-2H-pyran-2-yl)((S)-1-(4-fluorophenyl)-3,4-dihydroisoquinolin-2(1H)-yl)methanone]
23 | 0.316 | C[C@]1(C(=O)N2CCc3ccccc3[C@@H]2c2ccc(F)cc2)CCNCCO1 [Compound 5239]
24 | 0.631 | C[C@@]1(C(=O)N2CCc3ccccc3[C@@H]2c2ccc(F)cc2)CCNCCO1 [Compound 5240]
25 | 0.2 | O=C([C@@H]1OCCNC[C@@H]1O)N1CCc2ccccc2[C@@H]1c1ccc(F)cc1 [Compound 5243, ((S)-1-(4-fluorophenyl)-3,4-dihydroisoquinolin-2(1H)-yl)((6S,7R)-6-hydroxy-1,4-oxazepan-7-yl)methanone]
26 | 0.091 | O=C([C@H]1OCCNC[C@@H]1O)N1CCc2ccccc2[C@@H]1c1ccc(F)cc1 [Compound 5244]
27 | 0.35 | O=C([C@@H]1OCCNC[C@H]1O)N1CCc2ccccc2[C@@H]1c1ccc(F)cc1 [Compound 5245]
28 | 0.095 | CO[C@@H]1CO[C@@H](C(=O)N2CCc3ccccc3[C@@H]2c2ccc(F)cc2)C[C@H]1N [Compound 5247, ((2R,4R,5S)-4-amino-5-methoxytetrahydro-2H-pyran-2-yl)((S)-1-(4-fluorophenyl)-3,4-dihydroisoquinolin-2(1H)-yl)methanone]
29 | 0.032 | CCO[C@H]1CO[C@@H](C(=O)N2CCc3ccccc3[C@@H]2c2ccc(F)cc2)C[C@H]1N [Compound 5248, ((2R,4R,5R)-4-amino-5-ethoxytetrahydro-2H-pyran-2-yl)((S)-1-(4-fluorophenyl)-3,4-dihydroisoquinolin-2(1H)-yl)methanone]
30 | 0.095 | N[C@@H]1C[C@H](C(=O)N2CCc3ccccc3[C@@H]2c2ccc(F)cc2)OC[C@@H]1F [Compound 5250, ((2R,4R,5R)-4-amino-5-fluorotetrahydro-2H-pyran-2-yl)((S)-1-(4-fluorophenyl)-3,4-dihydroisoquinolin-2(1H)-yl)methanone]
31 | 0.188 | N[C@@H]1C[C@H](C(=O)N2CCc3ccccc3[C@@H]2c2ccc(F)cc2)OC[C@H]1F [Compound 5251, ((2R,4R,5S)-4-amino-5-fluorotetrahydro-2H-pyran-2-yl)((S)-1-(4-fluorophenyl)-3,4-dihydroisoquinolin-2(1H)-yl)methanone]
32 | 0.03 | N[C@H]1CC[C@H](C(=O)N2CCc3ccccc3[C@@H]2c2ccc(F)cc2F)OC1 [Compound 5255]
33 | 0.1 | N[C@@H]1CCO[C@@H](C(=O)N2CCc3ccccc3[C@@H]2c2ccc(F)cc2F)C1 [Compound 5256]
34 | 0.022 | N[C@H]1C[C@H](C(=O)N2CCc3ccccc3[C@@H]2c2ccc(F)cc2F)OC[C@H]1O [Compound 5257]
35 | 0.062 | N[C@@H]1CO[C@@H](C(=O)N2CCc3ccccc3[C@@H]2c2ccc(F)cc2F)C[C@@H]1O [Compound 5258]
36 | 0.046 | CO[C@H]1C[C@H](C(=O)N2CCc3ccccc3[C@@H]2c2ccc(F)cc2F)OC[C@H]1N [Compound 5259]
37 | 0.079 | CO[C@@H]1CO[C@@H](C(=O)N2CCc3ccccc3[C@@H]2c2ccc(F)cc2F)C[C@@H]1N [Compound 5261]
38 | 0.044 | CCO[C@@H]1CO[C@@H](C(=O)N2CCc3ccccc3[C@@H]2c2ccc(F)cc2F)C[C@@H]1N [Compound 5262]
